Assays:
[1] = system: human Liver-Chip (hepatocyte layer); assay: Liver-Chip immunofluorescence imaging (caspase 3/7, TMRM, AdipoRed/LipidTOX); assay type: cell-based; settings: for Immunofluorescent findings, donor one (Supplementary Figure 3) / Immunofluorescent findings, donor two (Supplementary Figure 3) / Immunofluorescent findings, donor three (Supplementary Figure 3): day 7 post-drug administration, hepatocyte layer, top channel; for Immunofluorescence staining result in words: caspase 3/7 (apoptosis) or TMRM (mitotoxicity), 7 days
Method: Chips were detached from pods and washed once with PBS. […] Afterwards, chips were washed with PBS and stored at 4 °C until staining. Following fixation, chips corresponding to low, medium, and high concentrations from each group were cut in half with a razor blade perpendicular to the co-culture channels. One half was used in the following staining protocol, while the other half was stored for future staining. All stains and washes utilized the bubble method, in which a small amount of air is flowed through the channel prior to bulk wash media to prevent a liquid-liquid dilution of the staining solution. […] Following 15 minutes of incubation at room temperature, each channel was washed with 200 µL of PBS (alternating channels, 2× for top and 3× for bottom). As an alternative lipid accumulation marker, 100 µL of HCS LipidTOX Deep Red (ThermoFisher, H34477) was diluted 1:1000 v/v in PBS with NucBlue counterstain and added to the top channel. After a 30 min incubation at room temperature, the chips were again allowed to reach room temperature before the channels were alternatively washed with 200 µL of PBS, the bottom channel undergoing three washes and the top channel undergoing two. Chips were then imaged using the Opera Phenix. Following lipid and DAPI staining and imaging, chips were stained with a […] (MRP2) antibody to visualize the bile canalicular structures characteristic of healthy Liver-Chips. […] Then, each channel was washed with 200 µL of PBS (alternating channels, 2× for top and 3× for bottom). […] Next, primary antibody Mouse anti-MRP2 (Abcam, ab3373) was prepared 1:100 in the original blocking buffer, diluted 1:4 in PBS. 100 µL of solution was added to each channel, and chips were stored overnight at 4 °C. The following day, each channel was washed with 200 µL of PBS (alternating channels, 2× for top and 3× for bottom). […] 100 µL of solution was added to each channel and chips incubated at room temperature, protected from light, for two hours. Then, each channel was washed with 200 µL of PBS (alternating channels, 2× for top and 3× for bottom). Chips were imaged immediately or stored at 4 °C until ready for imaging on the Opera Phenix. Chip replicates designated for live cell imaging were washed with PBS utilizing the bubble method. Chips were then cut in half perpendicular to the co-culture channels. […] The bottom chips halves were stained with NucBlue (Thermo) to visualize nuclei and Tetramethylrhodamine, methyl ester (TMRM) (ThermoFisher, I34361) to visualize active mitochondria. This staining panel was prepared in PBS with 5% FBS, with NucBlue at 2 drops per mL and TMRM at a 1:1000 ratio in original blocking buffer, diluted 1:4 in PBS. Chips were incubated in the dark at 37 °C for 30 min, and then each channel was washed with 200 µL of PBS (alternating channels, 2× for top and 3× for bottom). The chips were kept at 37 °C, protected from light, until ready for imaging with the Opera Phenix. Fluorescent confocal image acquisition was performed using the Opera Phenix High-Content Screening System and Harmony 4.9 Imaging and Analysis Software (PerkinElmer). Before acquisition, the Phenix internal environment was set to 37 °C and 5% CO2. […] Whole chips were placed directly into each slot, while top and bottom half chips were matched and combined in one chip slot. Chips were aligned flush with the adapter and one another. Any bubbles identified from visual inspection were washed out with PBS. Once ready, the stained chips were covered with transparent plate film to seal channel ports and loaded into the Phenix. […] Z-stacks were generated with 3.6 µm between slices for 28–32 planes so that the epithelium was located around the center of the stack. […] Raw images from fixed and live imaging were exported in TIFF format from the Harmony software. Using scripts written for FIJI (ImageJ), TIFFs across three color channels and multiple z-stacks were compiled into composite images for each field of view in each chip. […]

[2] = system: 3D spheroid cultures of primary human hepatocytes; settings: cited from earlier work; for Spheroid MOS: 3D hepatic spheroids, previously published data; for Spheroid false negative: Yes/No, also No for drugs not tested in spheroid; for Toxicity detection in 3D hepatic spheroids: threshold 50

| SMILES | Immunofluorescent findings, donor one (Supplementary Figure 3) [1] | Immunofluorescent findings, donor two (Supplementary Figure 3) [1] | IF imaging Donor 1 ([1]; matched pair analysis) | IF imaging Donor 2 ([1]; matched pair analysis) | Spheroid MOS [2] | Spheroid false negative [2] | IF imaging Donor 1 ([1]; expanded drug list) | IF imaging Donor 2 ([1]; expanded drug list) | Immunofluorescence staining result in words [1] | Toxicity detection in 3D hepatic spheroids [2] | Immunofluorescent findings, donor three (Supplementary Figure 3) [1] | IF imaging Donor 3 ([1]; matched pair analysis) |
| --- | --- | --- | --- | --- | --- | --- | --- | --- | --- | --- | --- | --- |
| Cc1c(C)c2c(c(C)c1O)CCC(C)(COc1ccc(CC3SC(=O)NC3=O)cc1)O2 (centres unmarked) [Troglitazone] | Apoptosis | Apoptosis | Apoptosis | Apoptosis | 2.3 | No | – | – | – | – | – | – |
| CC(C(=O)O)c1ccc2oc(-c3ccc(Cl)cc3)nc2c1 (centres unmarked) [Benoxaprofen] | – | Apoptosis | – | – | >0.7 | Yes | Apoptosis | Apoptosis | – | – | – | – |
| O=C(NC1CCN(CCCCC2(C(=O)NCC(F)(F)F)c3ccccc3-c3ccccc32)CC1)c1ccccc1-c1ccc(C(F)(F)F)cc1 [Lomitapide] | No findings | – | – | – | – | No | No findings | – | – | – | – | – |
| CCc1nn(CCCN2CCN(c3cccc(Cl)c3)CC2)c(=O)n1CCOc1ccccc1 [Nefazodone] | No findings | – | No findings | – | 6.8 | No | – | – | – | – | – | – |
| CCOC(=O)CN[C@@H](C(=O)N1CC[C@H]1C(=O)NCc1ccc(/C(N)=N\O)cc1)C1CCCCC1 [Ximelagatran] | No findings | No findings | – | – | 335 | Yes | No findings | No findings | – | – | – | – |
| CCN(CC)C(=O)/C(C#N)=C/c1cc(O)c(O)c([N+](=O)[O-])c1 [Entacapone] | No findings | – | No findings | – | 46.5 | No | – | – | – | – | – | – |
| CC(c1cc2ccccc2s1)N(O)C(N)=O (centres unmarked) [Zileuton] | No findings | No findings | – | – | >7.7 | Yes | No findings | No findings | – | – | – | – |
| CCc1ccc(CCOc2ccc(CC3SC(=O)NC3=O)cc2)nc1 (centres unmarked) [Pioglitazone] | Apoptosis | No findings | Apoptosis | No findings | > 5.3 | Yes | – | – | – | – | – | – |
| Cc1ccc(C(=O)c2cc(O)c(O)c([N+](=O)[O-])c2)cc1 [Tolcapone] | Mitotoxicity | Mitotoxicity | Mitotoxicity | Mitotoxicity | 0.3 | No | – | – | – | – | – | – |
| Nc1c2c(nc3ccccc13)CCCC2 [Tacrine] | Apoptosis | – | – | – | 696 | Yes | Apoptosis | Apoptosis | increased caspase 3/7 staining | not detected as toxic drugs in spheroids | – | – |
| Cc1cc2c(cc1CC(=O)c1sccc1S(=O)(=O)Nc1onc(C)c1Cl)OCO2 [Sitaxsentan] | Mitotoxicity | Mitotoxicity | Mitotoxicity | Mitotoxicity | 8.7 | No | – | – | concentration-dependent decrease in TMRM staining | – | Mitotoxicity | Mitotoxicity |
| CC[C@H]1OC(=O)[C@H](C)C(=O)[C@H](C)[C@@H](O[C@@H]2O[C@H](C)C[C@H](N(C)C)[C@H]2O)[C@](C)(OC)C[C@@H](C)C(=O)[C@H](C)[C@H]2N(CCCCn3cnc(-c4cccnc4)c3)C(=O)O[C@]12C [Telithromycin] | Apoptosis | – | – | – | – | No | Apoptosis | – | apoptosis-mediated cell death | – | – | – |
| CC(CCc1ccccc1)NCC(O)c1ccc(O)c(C(N)=O)c1 (centres unmarked) [Labetalol] | Apoptosis | Apoptosis | – | – | – | Yes | Apoptosis | Apoptosis | – | – | – | – |
| O=c1[nH]c(=O)n([C@@H]2O[C@H](CO)[C@@H](O)[C@@H]2F)cc1I [FIRU] | No findings | – | No findings | Steatosis | – | No | – | – | – | – | – | – |
| Cc1cn([C@H]2C=C[C@@H](CO)O2)c(=O)[nH]c1=O [Stavudine] | No findings | Mitotoxicity | – | – | >144 | Yes | No findings | Mitotoxicity | – | not detected as toxic drugs in spheroids | – | – |
| C=C[C@@H]1C[C@]1(NC(=O)[C@@H]1C[C@@H](Oc2ncc(OC)c3ccc(Cl)cc23)CN1C(=O)[C@@H](NC(=O)OC(C)(C)C)C(C)(C)C)C(=O)NS(=O)(=O)C1CC1 [Asunaprevir] | – | – | – | – | – | No | Apoptosis | – | apoptosis-mediated cell death | – | – | – |
| O=c1[nH]c(=O)n([C@@H]2O[C@H](CO)[C@@H](O)[C@@H]2F)cc1I [Fialuridine] | No findings | Steatosis | No findings | Steatosis | 12.3 | No | – | – | – | – | – | – |
| Cc1cc2c(s1)Nc1ccccc1N=C2N1CCN(C)CC1 [Olanzapine] | Apoptosis | – | Apoptosis | No findings | – | No | – | – | – | – | No findings | No findings |
| COC(c1ccccc1)(c1ccccc1)[C@H](Oc1nc(C)cc(C)n1)C(=O)O [Ambrisentan] | No findings | – | No findings | No findings | >127 | No | – | – | – | – | No findings | No findings |

Source: publication PMC9727064, “Performance assessment and economic analysis of a human Liver-Chip for predictive toxicology” (Communications Medicine, 2022)
